Common to all, as to assay type: binding
One assay concerns the target T1, PotF_Dist (Escherichia coli, UniProt P31133, A182D/L348Q/S87Y).
T1 construct: without the N-terminal signal peptide; made in house; host or cells: E. coli BL21 (DE3)
T1 sequence (P31133 27-370 S87Y/A182D/L348Q): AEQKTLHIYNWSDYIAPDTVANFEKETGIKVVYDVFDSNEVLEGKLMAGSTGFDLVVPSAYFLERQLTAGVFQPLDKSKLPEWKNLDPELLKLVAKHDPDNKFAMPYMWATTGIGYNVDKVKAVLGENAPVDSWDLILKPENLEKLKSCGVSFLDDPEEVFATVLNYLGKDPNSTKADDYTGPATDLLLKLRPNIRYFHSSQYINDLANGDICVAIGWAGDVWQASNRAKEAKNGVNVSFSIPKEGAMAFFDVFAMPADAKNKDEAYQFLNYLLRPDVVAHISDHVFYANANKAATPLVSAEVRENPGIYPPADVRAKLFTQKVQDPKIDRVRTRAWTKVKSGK
Briefly: ITC, PotF_Dist (S87Y, A182D, L348Q). As to conditions: 293 K. Here is the method:
(§1) Ligands were always freshly prepared in the exact same buffer as was used for the size exclusion run. Samples were degassed, and temperature was equilibrated using a degassing station (TA Instruments). About 400 μl protein sample of different concentrations (Table S5) depending on affinity was transferred into the sample cell of a nanoITC (TA Instruments), and 50 μl of about tenfold concentrated ligand solution was loaded into the injection needle. Multiple injection measurements were carried out at 293 K, 300 rpm stirring rate, and 250 s spacings between each 2 μl injection. The heat quantity past injection was determined by integration of the measured peaks. Every protein–ligand combination was measured as biological triplicate. Subtraction of heat of dilution measurements, peak integration, and one site binding fits were done with NanoAnalyze (TA Instruments). Reported errors are the errors between fits of the measured triplicates.
For orientation: In ITC the heat of successive injections is recorded.

Another assay addresses T2, PotF_Abox_Prox (Escherichia coli, UniProt P31133, D247S/D39E/F276W/S38T).
T2 construct: without the N-terminal signal peptide; made in house; host or cells: E. coli BL21 (DE3)
T2 sequence (P31133 27-370 S38T/D39E/D247S/F276W): T1 sequence (P31133 27-370 S87Y/A182D/L348Q) with S12T, D13E, Y61S, D156A, D221S, F250W, Q322L
Briefly: ITC, PotF_Abox_Prox (S38T, D39E, D247S, F276W). As to conditions: 293 K, 50 mM Tris pH 8, 300 mM NaCl, biological triplicates. The method, then:
as §1

A further assay has as its target T3, PotF_Abox-S87Y (Escherichia coli, UniProt P31133, F276W/S87Y).
T3 construct: without the N-terminal signal peptide; made in house; host or cells: E. coli BL21 (DE3)
T3 sequence (P31133 27-370 S87Y/F276W): T1 sequence (P31133 27-370 S87Y/A182D/L348Q) with D156A, F250W, Q322L
Briefly: ITC, PotF_Abox-S87Y (F276W, S87Y). Particulars: 293 K; for n: ITC binding stoichiometry; for ΔG / ΔH / −TΔS / Kd: ITC; for Kd: 50 mM Tris pH 8, 300 mM NaCl, biological triplicates. The method, then:
as §1

The target of another assay is T4, PotF/D–E39D–F88A–S247D (Escherichia coli, UniProt P31133, A182D/F276W/F88A/L348Q/S38T/S87Y).
T4 construct: without the N-terminal signal peptide; made in house; host or cells: E. coli BL21 (DE3)
T4 sequence (P31133 27-370 S38T/S87Y/F88A/A182D/F276W/L348Q): T1 sequence (P31133 27-370 S87Y/A182D/L348Q) with S12T, F62A, F250W
Briefly: ITC, PotF/D–E39D–F88A–S247D. Particulars: 293 K; for n: ITC binding stoichiometry; for ΔG / ΔH / −TΔS / Kd: ITC; for Kd: 50 mM Tris pH 8, 300 mM NaCl, biological triplicates. Here is the method: as §1

Assay [1] has as its target T5, PotF/D–E39D–Y87S–F88Y–S247D (Escherichia coli, UniProt P31133, A182D/F276W/F88Y/L348Q/S38T).
T5 construct: without the N-terminal signal peptide; made in house; host or cells: E. coli BL21 (DE3)
T5 sequence (P31133 27-370 S38T/F88Y/A182D/F276W/L348Q): T1 sequence (P31133 27-370 S87Y/A182D/L348Q) with S12T, Y61S, F62Y, F250W
Briefly: ITC, PotF/D–E39D–Y87S–F88Y–S247D. Particulars: 293 K; for n: ITC binding stoichiometry; for ΔG / ΔH / −TΔS / Kd: ITC. The method, then:
as §1

[2] abbreviates: ITC, 50 mM Tris pH 8, 300 mM NaCl, biological triplicates.

Residue numbers refer to the chain shown, from its start. Read-outs that look alike come from different tables or passages of the source.

`NCCCCN` [PUT, putrescine]: at PotF_Dist (setting [2]), the KD entry is given as “abolishes association”. The KD entry at PotF_Abox_Prox is recorded as “no binding”. In addition, on PotF_Abox-S87Y, the n worked out at 0.92 ± 0.03, the ΔG was -6.47 ± 0.02 kcal/mol, the ΔH is -9.97 ± 0.20 kcal/mol and the “−TΔS” value turned out to be 3.50 ± 0.18 kcal/mol. Moreover, the Kd on PotF_Abox-S87Y stood at 14.9 ± 0.54 µM. For the same compound, on PotF/D–E39D–F88A–S247D, the n is reported as 0.92 ± 0.04, the ΔG is -5.23 ± 0.02 kcal/mol, the ΔH was -5.21 ± 0.14 kcal/mol and the “−TΔS” value was -0.02 ± 0.15 kcal/mol. Further, at PotF/D–E39D–F88A–S247D, the equilibrium dissociation constant (Kd) came to 126 ± 5.29 µM. In assay [1], the n is recorded as 0.90 ± 0.01, the ΔG is -5.51 ± 0.02 kcal/mol, the ΔH is -4.15 ± 0.05 kcal/mol and the “−TΔS” value is -1.36 ± 0.05 kcal/mol. The equilibrium dissociation constant (Kd) in assay [1] (50 mM Tris pH 8, 300 mM NaCl, biological triplicates, read-out: KD) is 77.9 ± 3.17 µM.

Consider `NCCCCNCCCN` [SPD, spermidine], for which the n at PotF_Dist (ITC binding stoichiometry) is listed as 0.91 ± 0.02; on PotF_Abox-S87Y, 0.97 ± 0.02; on PotF/D–E39D–F88A–S247D, 0.91 ± 0.01; in assay [1], 0.91 ± 0.02. The ΔG is -5.48 ± 0.20 kcal/mol on PotF_Dist (ITC), -6.30 ± 0.02 kcal/mol at PotF_Abox-S87Y, -7.82 ± 0.06 kcal/mol on PotF/D–E39D–F88A–S247D and -8.17 ± 0.17 kcal/mol in assay [1]. The ΔH on PotF_Dist (ITC) is -1.83 ± 0.08 kcal/mol; at PotF_Abox-S87Y, -5.66 ± 0.12 kcal/mol; on PotF/D–E39D–F88A–S247D it was -4.75 ± 0.09 kcal/mol; in assay [1] it was -5.46 ± 0.08 kcal/mol. Besides, the “−TΔS” value is -3.65 ± 0.28 kcal/mol on PotF_Dist (ITC), -0.65 ± 0.12 kcal/mol at PotF_Abox-S87Y, -3.07 ± 0.14 kcal/mol at PotF/D–E39D–F88A–S247D and -2.71 ± 0.16 kcal/mol in assay [1]. The KD entry at PotF_Dist (setting [2]) and on PotF_Abox_Prox was “very low” throughout. The Kd on PotF_Dist (setting [2]) amounted to 88.2 ± 33.1 µM; at PotF_Abox-S87Y, 20 ± 0.7 µM; at PotF/D–E39D–F88A–S247D, 1.48 ± 0.14 µM; in assay [1] (read-out: SPD affinity (KD)) it was 0.84 µM.

The Kd is the constant that tells how readily two partners part at equilibrium.

The values are drawn from article PMC8666671, “Fine-tuning spermidine binding modes in the putrescine binding protein PotF” (The Journal of Biological Chemistry, 2021).
